Measurements as given in patent US20180319766A1, “CO-CRYSTALS OF BENZIMIDAZOLE COMPOUNDS” (FAES FARMA, S.A., priority 2015, published 2018).

Experiments:
[1] = Stability of the cocrystal under forced conditions of humidity and temperature (ICH), XRPD; format: physicochemical; conditions: 40° C.
Protocol: […] The solids were analyzed by XRPD every day during the first week and once a week afterwards, to detect possible crystalline transformations.

[2] = bilastine as zwitterion; cited from earlier work
[3] = pH range 5-8; cited from earlier work
[4] = Solubility of cocrystals in water at room temperature, relative to bilastine (HPLC); conditions: 400 mg of product in 24 ml, result in words, data only in figures
Protocol: Solubility of cocrystals was determined by stirring the product in water at room temperature (400 mg of product in 24 ml of water, 60 vol.). The product was previously milled in order to reduce the crystal size effect. A sample is collected and filtered using a sintered funnel (n° 3) periodically (30, 60, 180 min and after overnight). The filtered solid was immediately analyzed by XRPD, while the mother liquors are filtered through a 0.22 um filter and the concentration of Bilastine is determined by HPLC area (in some experiments where a high solubility was detected the mother liquor was diluted by a factor 10). This concentration is compared with the Bilastine concentration obtained in the same conditions in order to determine a relative solubility.
HPLC analyses were performed by duplicate on an Agilent 1100 series apparatus with a XBridge C-18 column at room temperature. 25μL sample were injected. The mobile phase (isocratic) was set as following: 52%(Methanol:aqueous octylamine 0.01M pH=7, 65:35)−42% (Acetonitrile:aqueous octylamine 0.01M pH=7, 60:40)

ΔpKa bilastine-coformer = format: physicochemical

| SMILES | Time the crystalline form is stable under forced conditions (XRPD) ([1]; 70±5% RH) | Time the crystalline form is stable under forced conditions (XRPD) ([1]; 75±5% RH) | further results |
| --- | --- | --- | --- |
| CCOCCn1c(C2CCN(CCc3ccc(C(C)(C)C(=O)O)cc3)CC2)nc2ccccc21 [bilastine, 2-[4-(2-{4-[1-(2-Ethoxyethyl)-1H-benzimidazol-2-yl]-1-piperidinyl}ethyl)phenyl]-2-methylpropanoic acid] |  |  | pKa of the acid function (carboxylate) [2]: 4.4; pKa of the base function (protonated amine) [2]: 8.8; Solubility [3]: around 500 μg/mL |
| CC=CC=CC(=O)O.CCOCCn1c(C2CCN(CCc3ccc(C(C)(C)C(=O)O)cc3)CC2)nc2ccccc21.CCOCCn1c(C2CCN(CCc3ccc(C(C)(C)C(=O)O)cc3)CC2)nc2ccccc21 [SO(I)] |  | at least 1 week | Solubility comparison with bilastine BLN(I) [4]: improves greatly the solubility of bilastine |
| CCOCCn1c(C2CCN(CCc3ccc(C(C)(C)C(=O)O)cc3)CC2)nc2ccccc21.CCOCCn1c(C2CCN(CCc3ccc(C(C)(C)C(=O)O)cc3)CC2)nc2ccccc21.O=C(O)CCC(=O)O [SU(VII)] |  | at least 1 week |  |
| CCOCCn1c(C2CCN(CCc3ccc(C(C)(C)C(=O)O)cc3)CC2)nc2ccccc21.CCOCCn1c(C2CCN(CCc3ccc(C(C)(C)C(=O)O)cc3)CC2)nc2ccccc21.Nc1ccc(C(=O)O)cc1 [AB(VIII)] |  | at least 1 week |  |
| O=C(O)C[C@H](O)C(=O)O [L-Malic acid] |  |  | ΔpKa bilastine-coformer (ΔpKa bilastine-coformer): 0.94 |

Now from value to compound, other results behind:

| Time the crystalline form is stable under forced conditions (XRPD) ([1]; 70±5% RH) | Time the crystalline form is stable under forced conditions (XRPD) ([1]; 75±5% RH) | SMILES | further results |
| --- | --- | --- | --- |
| at least 4 weeks |  | CCOCCn1c(C2CCN(CCc3ccc(C(C)(C)C(=O)O)cc3)CC2)nc2ccccc21.CCOCCn1c(C2CCN(CCc3ccc(C(C)(C)C(=O)O)cc3)CC2)nc2ccccc21.O=C(O)CCCC(=O)O [GL(I)] |  |
| at least 1 weeks |  | CCOCCn1c(C2CCN(CCc3ccc(C(C)(C)C(=O)O)cc3)CC2)nc2ccccc21.O=C(O)CCCCC(=O)O [AD(I)] |  |
|  | at least 1 week | CCOCCn1c(C2CCN(CCc3ccc(C(C)(C)C(=O)O)cc3)CC2)nc2ccccc21.Nc1ccc(C(=O)O)cc1 [AB(VII)] |  |
| at least 4 weeks |  | CCOCCn1c(C2CCN(CCc3ccc(C(C)(C)C(=O)O)cc3)CC2)nc2ccccc21.O=C(O)CCCC(=O)O [GL(V)] |  |
| at least 1 weeks |  | CCOCCn1c(C2CCN(CCc3ccc(C(C)(C)C(=O)O)cc3)CC2)nc2ccccc21.CCOCCn1c(C2CCN(CCc3ccc(C(C)(C)C(=O)O)cc3)CC2)nc2ccccc21.O=C(O)CCCCC(=O)O [AD(III)] |  |
|  | at least 1 week | CCOCCn1c(C2CCN(CCc3ccc(C(C)(C)C(=O)O)cc3)CC2)nc2ccccc21.O=C(O)CCC(=O)O [SU(VI)] |  |
